Blank lines part the entries; values can stand above or below the compound they belong to. Calls of active or inactive are those of the source.
Tests used:
[1] = Luminescence Cell-Based Secondary HTS screen to identify cytotoxic compounds of NIH3T3 cells. [Related pubchem assays: 1885, 1968 ]; type: functional
[2] = T. cruzi infection blockers in NIH3T3 cells – beta-gal luminescence, NIH3T3 host cells, confirmation (AID 2630); type: functional, cell-based; settings: Mus musculus
[3] = Luminescence Cell-Based/Microorganism Confirmation at Dose of Inhibitors of Trypanosoma cruzi Infection. [Related pubchem assays: 1885, 1968 ]; type: functional
Galanin receptor type 3 = Galanin receptor type 3 (Homo sapiens, UniProt O60755); assay: Fluorescence-based cell-based primary high throughput dose response assay to identify antagonists of the Galanin Receptor 3 (GalR3).; type: functional
Jurkat = assay: blockers of NF-kB activation in T cells – Jurkat, luciferase reporter, luminescence, B- and T-cell, dose response (AID 489004); type: functional, cell-based; settings: Homo sapiens;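 also: NF-kB luciferase reporter Jurkat cells stimulated with PMA plus ionomycin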
cells = type: functional, cell-based; settings: HEK-CNG
[4] = HEK-293T viability loss, compound-treated – cell-based, uHTS hits, cytotoxicity control for B/T-cell NF-kB inhibitor project, dose response (AID 489019); type: functional;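 also: IC50 reflects cytotoxicity as loss of cell viability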
[5] = molecular target: T1, COUP transcription factor 2 (Homo sapiens, UniProt P24468); assay: Luminescence-based cell-based high throughput dose response assay to identify inhibitors of COUP-TFII (NR2F2).; type: functional;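 also: HEK293 cells transiently cotransfected with COUP-TFII expression vector and reporter; luciferase reporter luminescence driven by COUP-TFII from the pX2-168 reporter plasmid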
T1 sequence (P24468 whole entry): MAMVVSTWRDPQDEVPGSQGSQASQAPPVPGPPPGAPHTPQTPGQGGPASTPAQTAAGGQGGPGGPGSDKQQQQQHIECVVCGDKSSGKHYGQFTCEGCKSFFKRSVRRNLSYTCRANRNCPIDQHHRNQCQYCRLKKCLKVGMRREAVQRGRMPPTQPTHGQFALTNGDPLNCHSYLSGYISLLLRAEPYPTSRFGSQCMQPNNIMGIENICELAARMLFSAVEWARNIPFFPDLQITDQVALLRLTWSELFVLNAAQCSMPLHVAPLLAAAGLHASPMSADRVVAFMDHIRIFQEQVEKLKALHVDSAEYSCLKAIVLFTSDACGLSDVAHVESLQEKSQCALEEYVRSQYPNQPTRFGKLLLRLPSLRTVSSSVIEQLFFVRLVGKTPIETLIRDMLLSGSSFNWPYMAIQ

Galanin receptor type 2 = Galanin receptor type 2 (Homo sapiens, UniProt O43603); assay: Dose Response cell-based high-throughput screening assay to identify antagonists of galanin receptor 2 (GALR2). [Related pubchem assays: 828, 866 ]; type: functional
A-375 = assay: proliferation inhibition in MITF-low A375 cells – cell-based, cherry-pick samples, set 2, counter-screen for MITF modulator project, dose response (AID 540335); type: functional; settings: Homo sapiens
[6] = molecular target: Voltage-gated inwardly rectifying potassium channel KCNH2 (Homo sapiens, UniProt Q12809); settings: Potency;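 also: confirmatory quantitative high-throughput screen measuring inhibition of hERG channel activity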
Hexokinase-1 = molecular target: T2, Hexokinase-1 (Homo sapiens, UniProt P19367); assay: hexokinase 1 activity inhibitors, potency – biochemical, set 2, resazurin fluorescence coupled readout, selectivity assay for HKDC1 inhibitor project, SAR follow-up (AID 588356); type: functional
T2 sequence (P19367 whole entry): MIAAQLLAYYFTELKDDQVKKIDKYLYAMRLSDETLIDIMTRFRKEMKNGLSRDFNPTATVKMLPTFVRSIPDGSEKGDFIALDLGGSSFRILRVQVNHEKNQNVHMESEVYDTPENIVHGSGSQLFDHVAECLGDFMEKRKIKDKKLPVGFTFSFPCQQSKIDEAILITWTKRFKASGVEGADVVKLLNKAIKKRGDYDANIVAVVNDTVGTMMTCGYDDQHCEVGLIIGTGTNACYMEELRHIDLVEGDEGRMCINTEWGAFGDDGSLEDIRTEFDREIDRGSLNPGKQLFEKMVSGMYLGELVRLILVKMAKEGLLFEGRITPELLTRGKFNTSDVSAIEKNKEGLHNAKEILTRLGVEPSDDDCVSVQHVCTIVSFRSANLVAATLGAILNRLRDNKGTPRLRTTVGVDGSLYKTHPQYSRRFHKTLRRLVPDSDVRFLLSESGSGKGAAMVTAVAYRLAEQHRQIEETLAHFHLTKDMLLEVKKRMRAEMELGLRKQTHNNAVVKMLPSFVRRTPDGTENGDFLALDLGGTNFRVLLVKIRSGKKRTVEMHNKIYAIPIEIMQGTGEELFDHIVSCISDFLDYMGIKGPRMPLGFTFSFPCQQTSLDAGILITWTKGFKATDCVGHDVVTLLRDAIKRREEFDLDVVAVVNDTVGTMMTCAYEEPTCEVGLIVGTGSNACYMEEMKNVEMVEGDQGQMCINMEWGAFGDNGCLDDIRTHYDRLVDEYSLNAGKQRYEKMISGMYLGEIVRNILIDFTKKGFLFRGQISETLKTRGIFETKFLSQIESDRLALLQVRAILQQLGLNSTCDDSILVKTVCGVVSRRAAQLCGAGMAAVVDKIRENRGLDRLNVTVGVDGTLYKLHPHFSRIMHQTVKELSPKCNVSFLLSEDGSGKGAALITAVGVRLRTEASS

Hexokinase HKDC1 = molecular target: T3, Hexokinase HKDC1 (Homo sapiens, UniProt Q2TB90); assay: analog inhibition of human HKDC1 activity – biochemical, set 2, SAR follow-up (AID 588355); type: functional
T3 sequence (Q2TB90 whole entry): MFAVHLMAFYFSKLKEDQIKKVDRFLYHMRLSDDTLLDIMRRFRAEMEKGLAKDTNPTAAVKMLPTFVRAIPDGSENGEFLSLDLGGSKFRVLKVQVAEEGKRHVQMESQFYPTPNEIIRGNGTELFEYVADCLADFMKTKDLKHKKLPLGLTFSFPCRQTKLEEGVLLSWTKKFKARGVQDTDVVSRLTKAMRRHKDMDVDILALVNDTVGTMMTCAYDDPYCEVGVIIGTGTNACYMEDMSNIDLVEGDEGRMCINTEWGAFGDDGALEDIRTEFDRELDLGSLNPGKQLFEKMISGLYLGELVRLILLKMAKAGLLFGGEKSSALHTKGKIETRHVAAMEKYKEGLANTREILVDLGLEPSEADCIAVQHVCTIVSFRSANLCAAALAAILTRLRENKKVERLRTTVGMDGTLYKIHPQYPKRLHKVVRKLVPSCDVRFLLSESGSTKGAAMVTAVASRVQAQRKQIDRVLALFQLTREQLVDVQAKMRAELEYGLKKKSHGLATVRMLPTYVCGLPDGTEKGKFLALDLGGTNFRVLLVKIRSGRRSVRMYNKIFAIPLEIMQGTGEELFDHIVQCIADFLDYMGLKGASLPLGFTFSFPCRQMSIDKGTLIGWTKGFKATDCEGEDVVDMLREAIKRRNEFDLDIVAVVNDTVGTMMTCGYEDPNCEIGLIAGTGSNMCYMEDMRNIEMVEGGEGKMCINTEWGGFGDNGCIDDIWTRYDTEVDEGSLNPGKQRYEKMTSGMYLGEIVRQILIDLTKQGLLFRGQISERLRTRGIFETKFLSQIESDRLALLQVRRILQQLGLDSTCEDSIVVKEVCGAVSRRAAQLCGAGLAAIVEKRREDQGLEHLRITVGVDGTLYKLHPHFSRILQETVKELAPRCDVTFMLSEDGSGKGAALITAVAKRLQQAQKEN

Sequence of Galanin receptor type 2 (O43603 whole entry): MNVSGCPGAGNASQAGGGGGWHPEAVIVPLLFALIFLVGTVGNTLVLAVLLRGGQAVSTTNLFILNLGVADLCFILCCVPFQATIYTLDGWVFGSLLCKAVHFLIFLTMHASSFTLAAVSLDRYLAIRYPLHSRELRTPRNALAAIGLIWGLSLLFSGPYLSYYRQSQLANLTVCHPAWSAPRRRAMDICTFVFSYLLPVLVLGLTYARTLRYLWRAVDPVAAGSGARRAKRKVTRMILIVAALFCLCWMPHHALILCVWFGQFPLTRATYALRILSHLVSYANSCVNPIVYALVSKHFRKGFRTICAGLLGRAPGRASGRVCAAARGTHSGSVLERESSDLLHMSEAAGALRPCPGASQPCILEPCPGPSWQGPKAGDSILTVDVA
Sequence of Voltage-gated inwardly rectifying potassium channel KCNH2 (Q12809 whole entry): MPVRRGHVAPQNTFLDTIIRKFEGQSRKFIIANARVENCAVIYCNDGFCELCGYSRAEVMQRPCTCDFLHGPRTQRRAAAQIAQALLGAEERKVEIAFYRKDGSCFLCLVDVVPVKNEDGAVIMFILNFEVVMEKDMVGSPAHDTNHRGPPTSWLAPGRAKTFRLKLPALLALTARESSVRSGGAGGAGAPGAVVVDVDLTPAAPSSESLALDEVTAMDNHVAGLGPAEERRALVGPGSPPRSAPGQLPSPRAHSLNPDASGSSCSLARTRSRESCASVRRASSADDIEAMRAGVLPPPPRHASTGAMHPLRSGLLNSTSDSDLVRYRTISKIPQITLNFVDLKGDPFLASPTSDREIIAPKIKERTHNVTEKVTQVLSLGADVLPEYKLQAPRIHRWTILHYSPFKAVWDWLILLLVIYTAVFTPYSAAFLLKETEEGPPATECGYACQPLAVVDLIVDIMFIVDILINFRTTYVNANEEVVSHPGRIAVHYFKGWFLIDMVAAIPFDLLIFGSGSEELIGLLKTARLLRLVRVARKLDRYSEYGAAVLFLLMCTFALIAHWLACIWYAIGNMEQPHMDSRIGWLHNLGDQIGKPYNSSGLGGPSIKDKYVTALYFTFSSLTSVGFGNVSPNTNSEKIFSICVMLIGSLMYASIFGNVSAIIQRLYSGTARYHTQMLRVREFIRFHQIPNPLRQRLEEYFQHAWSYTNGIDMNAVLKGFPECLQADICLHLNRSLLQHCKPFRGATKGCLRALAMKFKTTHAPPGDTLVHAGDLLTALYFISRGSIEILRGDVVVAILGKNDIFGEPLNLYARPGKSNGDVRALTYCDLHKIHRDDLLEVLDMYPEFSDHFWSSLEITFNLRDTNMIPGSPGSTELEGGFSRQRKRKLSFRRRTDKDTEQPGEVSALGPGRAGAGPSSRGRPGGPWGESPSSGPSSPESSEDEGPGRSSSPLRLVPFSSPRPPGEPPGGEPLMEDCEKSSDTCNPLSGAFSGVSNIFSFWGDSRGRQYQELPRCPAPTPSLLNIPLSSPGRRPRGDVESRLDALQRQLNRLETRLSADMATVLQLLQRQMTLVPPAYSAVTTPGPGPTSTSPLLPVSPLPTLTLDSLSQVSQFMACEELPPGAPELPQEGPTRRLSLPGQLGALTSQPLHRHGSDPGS
Sequence of Galanin receptor type 3 (O60755 whole entry): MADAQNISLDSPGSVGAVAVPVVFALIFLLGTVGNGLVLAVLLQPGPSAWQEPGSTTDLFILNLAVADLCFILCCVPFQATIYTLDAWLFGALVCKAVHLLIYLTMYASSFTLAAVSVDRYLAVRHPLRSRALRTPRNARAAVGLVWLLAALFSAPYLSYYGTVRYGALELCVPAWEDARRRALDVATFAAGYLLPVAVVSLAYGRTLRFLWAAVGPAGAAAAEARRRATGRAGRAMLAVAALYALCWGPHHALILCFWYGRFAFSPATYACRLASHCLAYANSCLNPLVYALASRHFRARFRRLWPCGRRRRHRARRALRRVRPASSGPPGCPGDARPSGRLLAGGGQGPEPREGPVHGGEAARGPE

Compound: CCc1ccc2nc(N(CCN(C)C)C(=O)c3ccc4ncsc4c3)sc2c1
EC50 [1]: > 195 µM (inconclusive)
EC50 [2]: 0.176 µM (active)
EC50 [3]: 0.176 µM (active)

Compound: O=C(CSc1nnnn1C1CC2CCC1C2)Nc1ccnc2ccccc12 (stereo not drawn)
IC50 (Galanin receptor type 3): 0.0869 µM (active)
IC50 (Jurkat): 61.4 µM (inactive)
EC50 (cells): > 29.9 µM (inactive)
IC50 [4]: 45.1 µM (inactive)
IC50 [5]: 0.568 µM (active)
IC50 (Galanin receptor type 2): > 42 µM (not active)

Compound: Cc1ccc(-n2cc(CNCCCn3cccn3)c(-c3cccc(C)c3)n2)cc1
AC50 (A-375): 24.3 µM (active)

Compound: CCCN(CCC)C1Cc2cc(OC)c(OC)cc2C1
AC50 [6]: 14.1 µM (inconclusive)

IC50 (Hexokinase-1): > 80 µM (inactive)
IC50 (Hexokinase HKDC1): > 80 µM (inactive)
Compound: COc1ccc(NC2c3ccccc3C(=O)N2c2ccccc2C)cc1 (stereo not drawn)

Source: ChEMBL document CHEMBL1201862, “PubChem BioAssay data set” (2004)
